Laboratory results as given in patent US7714014B2, “Targeting GLI proteins in human cancer by small molecules” (The Regents of the University of California, priority 2005, dated 2010).

What was measured:
A549 (NSCLC) = assay: Apoptosis analysis (Annexin V FITC, flow cytometry); type: cell-based, human; settings: 3 days
Protocol: (§1) Apoptosis was analyzed by using an Annexin V FITC Apoptosis Detection Kit (Biosource, Camarillo, Calif.), according to the manufacturer's protocol. After treatment with different small molecule compounds at various concentrations for about 3 days, cells were harvested by trypsinization, stained and immediately analyzed by flow cytometry (FACScan; Decton Dickinson, Franklin Lake, N.J.). Early apoptotic cells with exposed phosphatidylserine but intact cell membranes will bind to Annexin V-FITC, but not propidium iodide (PI). Cells in necrotic or late apoptotic stages will be labeled with both Annexin V-FITC and PI. “% apoptotic cells” or “% apoptosis” refers to the combined early and late apoptotic cells.
Flow cytometry was also used to examine apoptosis in several NSCLC cell lines after treatment with small molecule compounds of the invention.
Dose titration experiments of small molecule compound FN1-8 was performed using the NSCLC cell lines A549, H358, and H322. A 549, H358, and H322 cells were plated in 6-well plates and incubated with DM SO (control) or 7.5 μM, 10 μM, 15 μM, 20 μM, and 30 μM of FN1-8, respectively, for 3 days. A dramatic and dose-dependent cell killing in these cell lines was observed when FN1-8 was added at 15 μM or more. FN1-8 induced cell killing in A549 and […] at slightly lower concentrations than in H322 cells (data not shown). After 3 days, approximately 28% of the A549 cells and 58% of H358 underwent apoptosis when incubated with 20 μM FN1-8 (Table 3).

LOX (melanoma) = assay: as above; type: cell-based, human; settings: 3 days
Protocol: as §1
The cell killing of LOX cells by treatment with small molecule compounds FN1-5 and FN1-8 was analyzed in greater detail using various concentrations of these two compounds and flow cytometry. […] (Tables 2 and 3).

[1] = system: NSCLC cell lines H460, H838, H1975, H1650, and H1703; assay: Cell survival assay (crystal violet); type: cell-based, human; settings: for cell killing: data not shown
Protocol: (§2) Typically, the small molecule compounds of the present invention were dissolved in DMSO at a concentration of 30 mM. The small molecule compounds were then tested under cell culture conditions at different concentrations ranging from 0, 10, 30, 50, to 100 uM. To determine cell survival after treatment, the cells were incubated with the small molecule compounds in 6-well plates for about 3 days. After removal of the cell culture medium, 1-ml of 0.5% crystal violet solution (prepared in 20% ethanol and 20% methanol) was added to stain the cells for 5 min. Then the crystal violet solution was rinsed clean with tap water. Cell survival was estimated based on the density of crystal stained plates.

[2] = system: colon cancer cell line HT29; assay: Cell survival assay (crystal violet); type: cell-based, human; settings: FN1-8 even at higher doses (50 μM), data not shown
Protocol: as §2

[3] = system: human esophageal cancer cell lines SEG-1, TE-7, BIC-1, and OE21; assay: Cell survival assay (crystal violet); type: cell-based; settings: for cell killing: 50 μM
Protocol: as §2
The cell-based cytotoxicity assay described herein was used to determine the effect of small molecule compounds FN1-5 and FN1-8 in the human esophageal cancer cell lines SEG-1, TE-7, BIC-1, and OE21. Viability of these cells was analyzed after treatment with 10, 30 and 50 μM FN1-5 or FN1-8.

[4] = system: human sarcoma cell lines MG63 and MNNG; assay: Cell survival assay (crystal violet); type: cell-based; settings: FN1-8 at 50 μM; 10, 30 and 50 μM tested
Protocol: as §2
The cell-based cytotoxicity assay described herein was used to determine the effect of small molecule compounds FN1-5 and FN1-8 in the human sarcoma cell lines MG63 and MNNG. Viability of these cells was analyzed after treatment with 10, 30 and 50 μM FN1-5 or FN1-8.

[5] = system: GLI1- and GLI2-induced transcription in Panc4.21 pancreatic cancer cells; assay: 6xGLI BS-luciferase reporter assay; type: cell-based, human; settings: for 6xGLI BS-luciferase activity (TAFII31 co-transfected with GLI1 or GLI2): Panc4.21, 20 μM for 16-20 hours; for 6xGLI BS-luciferase activity (GLI1- or GLI2-induced): Panc4.21, 20 μM, 16-20 hours
Protocol: One day before transfection, cells (1×10^5) were plated in 12-well plates with growth medium without antibiotics. When cells reached 80-90% of confluence they were co-transfected using 0.5 μg of each promoter construct in pGL3Basic vector and 0.025 μg pRL-TK Vector (Promega; Madison, Wis.) containing Renilla Luciferase as an internal control for the transformation efficiency. Lipofectamine 2000™ (Invitrogen Life Technologies) was used to mediate transfection for about 6 hours. […] Briefly, cells were lysed in a lysis buffer and Firefly and Renilla Luciferase activities in cells of each well, were measured using Dual-Luciferase Assay System (Promega) and an illuminometer. The measured luciferase activities were normalized to pRL-TK Vector activity and were given relative to the basal activity of empty pGL3-Basic Vector, which was set to unity. The data shown represent mean values (±S.D.). All measurements were performed in triplicate and repeated in at least three independent experiments. The human Wnt-2 promoter-luciferase construct, the human SOCS3 promoter-Luciferase construct and the human Gremlin promoter-luciferase construct were cloned and characterized in the laboratory of Dr. Jablons at the University of California, San Francisco (San Francisco, Calif.; He et al., Biochem Biophy Res Comm, 2003; and unpublished data). The 6GLI-TKO-luciferase construct (containing 6 repeats of consensus GLI DNA binding sequence) was kindly provided by Dr. Matthias Hebrok's laboratory at the University of California, San Francisco (San Francisco, Calif.).
To further examine the specificity of the small molecule compounds FN1-5 and FN1-8 to inhibit Hh/Gli signaling pathways, GLI-dependent transcription in the absence and presence of these compounds was also determined in pancreatic cancer cells.
This finding also provides a method for inhibiting GLI1- and GLI2-dependent transcription in a cell.
The TAFII31 expression plasmid contained the full-length TAFII31 cDNA generated by PCR cloned into the EcoRI (5′) and BamHI (3′) sites of a mammalian expression vector containing a c-Myc tag (pCDNA3.1 (−)B. The sequence of TAFII31 corresponds to GenBank Accession No. U25112.

SMILES	% of apoptotic cells (A549 (NSCLC); A549, 10 μM) [%]	% of apoptotic cells (LOX (melanoma); 10 μM) [%]	% of apoptotic cells (LOX (melanoma); 30 μM) [%]	% of apoptotic cells (LOX (melanoma); 50 μM) [%]	cell killing [1]	cell killing potency compared with FN1-5 ([1]; same concentrations)	cell killing [2]	cell killing potency compared with FN1-5 [3]	cell killing [3]	cell killing [4]	6xGLI BS-luciferase activity (TAFII31 co-transfected with GLI1 or GLI2) [5]	6xGLI BS-luciferase activity (GLI1- or GLI2-induced) [5]	% of apoptotic cells (A549 (NSCLC); A549, 100 μM) [%]
O=C(NCCc1ccc(O)cc1)C1C(c2ccccc2)=NN(c2ccccc2)C1c1ccccc1 (centres unmarked) [FN1-8, N-(2-(4-Hydroxyphenyl)ethyl)-1,3,5-triphenyl-4,5-dihydro-pyrazole-4-carboxyamide]	12.5	16.7	19.0	78.9	dramatic cell killing	more potent than FN1-5	no cell killing	more potent	dramatic cell killing	dramatic cell killing	significantly reduced	significantly reduced level of luciferase activity	
O=C(NCCCCCO)C1C(c2ccccc2)=NN(c2ccccc2)C1c1ccccc1 (centres unmarked) [FN1-5, N-(5-Hydroxypentyl)-1,3,5-triphenyl-4,5-dihydro-pyrazole-4-carboxyamide]	9.4	14.0	16.6	58.1	dramatic cell killing		dramatic cell killing		dramatic cell killing	No significant cell killing	significantly reduced	significantly reduced level of luciferase activity	30.0
